According to patent publication US20250215460A1, “MICROBIAL […] THE CONVERSION OF CARBOHYDRATES” (Ohio State Innovation Foundation, priority 2022, published 2025):

What was measured:
[1] = test system: C. tyrobutyricum Δcat1::adhE2; test: Batch fermentation of glucose in serum bottles with methyl viologen added; type: cell-based, Clostridium tyrobutyricum
Excerpt: Artificial electron carriers such as methyl viologen, benzyl viologen and neutral red have been used in solventogenic clostridia to increase butanol production through diverting electron flow towards NADH formation accompanied by decreased hydrogen production. An artificial electron carrier, such as methyl viologen (MV) and benzyl viologen (BV), was used to inhibit hydrogen production and increase NADH pool and butanol production by C. tyrobutyricum expressing adhE2. C. tyrobutyricum Δcat1::adhE2 was cultured in Clostridia Growth Medium (CGM) containing glucose as the carbon source in serum bottles at 37° C. The medium pH was buffered at ˜5.5 with CaCO3. At 24 h after initial seeding the bottles, methyl viologen was added at various concentrations (up to 1000 μM) to study its effects on cell growth and butanol production. […] The highest butanol yield and productivity were obtained at 500 μM MV. Similar results can also be achieved with other electron carriers such as benzyl viologen and neutral red.

[2] = test system: C. tyrobutyricum Δcat1::adhE2; test: Batch fermentations of glucose and xylose in bioreactors at pH 6.0 with methyl viologen; type: cell-based, Clostridium tyrobutyricum
Protocol: Batch fermentations of glucose and xylose by C. tyrobutyricum Δcat1::adhE2 were studied in bioreactors at pH 6.0 in the presence of methyl viologen (MV) at various concentrations (0 μM, 200 μM, 500 μM, 1000 μM). For glucose fermentation, MV was added at 12 h after inoculation. […] The fermentation time course data are shown in FIGS. 11A-11H and the effects of MV on cell growth and fermentation kinetics are illustrated in FIG. 12. […] Similar trends were also observed with xylose as the substrate at 200 μM MV. […] The results also indicate that biomass hydrolysate sugars including glucose and xylose can be used simultaneously and converted to butanol by engineered C. tyrobutyricum expressing adhE2.

SMILES: C[n+]1ccc(-c2cc[n+](C)cc2)cc1 [MV, methyl viologen]
- Effect on acetate and butanol production from glucose ([1]; MV up to 1000 μM added at 24 h, pH ~5.5, 37° C.): dramatically reduced acetate production and increased butanol production
- MV concentration at which lactate was also produced as a byproduct ([1]; glucose, pH ~5.5): ≥ 200 µM
- MV concentration giving the highest butanol yield and productivity ([1]; glucose, pH ~5.5): 500 µM
- Toxicity to cells, xylose compared to glucose ([2]; bioreactor, pH 6.0): more toxic to cells grown on xylose
- Effect on product formation with increasing MV concentration ([2]; glucose as substrate, MV 0-1000 μM added at 12 h, pH 6.0): butanol and lactate production increased while acetate and butyrate production decreased
- Effect on cell growth and fermentation ([2]; xylose as substrate, 500 μM and 1000 μM MV added at 24 h, pH 6.0): completely inhibited cell growth and stopped fermentation
- Effect on cell growth and fermentation (figure legend) ([2]; xylose fermentation, 500 mM and 1000 mM MV, addition delayed to 24 h): completely inhibited cell growth and fermentation
